The text below walks through data of US5792767A, “Bicyclic substituted hexahydrobenz [e] isoindole alpha-1 adrenergic antagonists” (priority 1995, dated 1998).

The structures appear in SMILES notation. Where a name gives a salt, the structure may show the parent alone.

T1 sequence (P35348 whole entry): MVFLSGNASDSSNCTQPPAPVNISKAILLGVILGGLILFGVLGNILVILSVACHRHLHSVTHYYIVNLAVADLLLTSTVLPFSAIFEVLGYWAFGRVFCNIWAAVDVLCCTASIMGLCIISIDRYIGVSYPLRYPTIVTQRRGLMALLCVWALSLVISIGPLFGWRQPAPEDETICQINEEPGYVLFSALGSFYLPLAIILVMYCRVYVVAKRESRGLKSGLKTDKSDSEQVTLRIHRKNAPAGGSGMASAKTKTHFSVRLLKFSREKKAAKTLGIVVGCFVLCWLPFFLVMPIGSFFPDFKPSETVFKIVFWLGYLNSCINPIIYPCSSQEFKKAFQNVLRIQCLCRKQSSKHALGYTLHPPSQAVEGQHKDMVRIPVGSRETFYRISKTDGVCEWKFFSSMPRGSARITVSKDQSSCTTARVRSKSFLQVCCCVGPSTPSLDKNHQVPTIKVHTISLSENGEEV

The test addresses T1, α-1A adrenoceptor (dog prostate).
T1 construct: from tissue; host or cells: canine prostate strips
The experiment in a line: Functional antagonism of phenylephrine-induced contraction of canine prostate strips. The test is classed as cell-based, dog (canine). Particulars: vs phenylephrine-induced contraction, Schild plot; read-out: pA2 Dog Prostate [α-1A] (converted). The source says:
Canine prostate strips were used in vitro as previously described (Hieble, J. P., Boyce, A. J. and Caine, M., Fed. Proc., 45: 2609-2614 (1986)), to determine antagonist potencies against phenylephrine-induced contractions.
Functional assays indicative of pharmacologically defined α-1 adrenoceptors were used to further characterize compounds. Inhibition of phenylephrine (PE)-induced contraction of canine prostate smooth muscle can be correlated with α-1A adrenoceptor activation. […] For each of these models, agonist dose response curves were repeated against increasing concentrations of test agent to derive a Schild plot [log ([…]) against log (molarity of test agent)] to determine the pA2.
As to `COc1cccc2c1CC[C@H]1CN(CCn3c(=O)[nH]c4cc(C(=O)OC(C)C)ccc4c3=O)C[C@@H]21` [Example 73, hydrochloride], the Kb was 1.23 nM.
As to `COc1cccc2c1CC[C@H]1CN(CCn3cnc4c(OC)c(OC)ccc4c3=O)C[C@@H]21` [Example 58, dihydrochloride], the Kb is 1.26 nM.
To `COc1cccc2c1CC[C@H]1CN(CCN3Cc4ccccc4NC3=O)C[C@@H]21` [Example 44, hydrochloride] belongs 5.37 nM; to `COc1cccc2c1CC[C@H]1CN(CCn3c(=O)[nH]c4cc(NC(C)=O)ccc4c3=O)C[C@@H]21` [Example 75, 3-[2-((3aR,9bR)cis-6-Methoxy-2,3,3a,4,5,9b-hexahydro-[1H]-benz[e]isoindolyl-1-yl)ethyl]-7-acetamidoquinazoline-2,4(1H,3H)-dione hydrochloride], 0.661 nM; to `COc1cccc2c1CC[C@H]1CN(CCn3c(=O)[nH]c4cnccc4c3=O)C[C@@H]21` (relative stereo) [Example 24, dihydrochloride], 1.29 nM.
As to `COc1cccc2c1CC[C@H]1CN(CCn3c(=O)[nH]c4cc(C(=O)O)ccc4c3=O)C[C@@H]21` [Example 70, hydrochloride], the Kb is 1.12 nM.
As for `COc1cccc2c1CC[C@H]1CN(CCn3c(=O)[nH]c4c(OC)c(OC)c(OC)cc4c3=O)C[C@@H]21` (relative stereo) [Example 18, 3-[2-(cis-6-Methoxy-2,3,3a,4,5,9b-hexahydro-[1H]-benz[e]isoindol-1-yl)ethyl]-6,7,8-trimethoxy-quinazoline-2,4(1H,3H)-dione hydrochloride], the figure is 4.17 nM; as for `COc1cccc2c1CC[C@H]1CN(CCn3c(=O)[nH]c4ccc([N+](=O)[O-])cc4c3=O)C[C@@H]21` (relative stereo) [Example 16, hydrochloride], 12.3 nM.
As for `COc1cccc2c1CC[C@H]1CN(CCn3c(=O)[nH]c4[nH]ccc4c3=O)C[C@@H]21` (relative stereo) [Example 30], the figure is 1.15 nM.
Turning to `COc1cccc2c1CC[C@H]1CN(CCn3c(=O)[nH]c4ccncc4c3=O)C[C@@H]21` (relative stereo) [Example 27, dihydrochloride], the Kb was 2.34 nM.
On to `COC(=O)c1ccc2c(=O)n(CCN3C[C@@H]4CCc5c(OC)cccc5[C@@H]4C3)c(=O)[nH]c2c1` (relative stereo) [Example 14, hydrochloride], for which the Kb was 0.977 nM.
As for `COc1cccc2c1CC[C@H]1CN(CCn3c(=O)[nH]c4scc(-c5ccccc5)c4c3=O)C[C@@H]21` (relative stereo) [Example 6, hydrochloride], the figure is 47.9 nM; as for `COc1ccccc1-c1csc2c(=O)n(CCN3C[C@@H]4CCc5c(OC)cccc5[C@@H]4C3)c(=O)[nH]c12` [Example 85, 3-[2-((3aR,9bR)cis-6-Methoxy-2,3,3a,4,5,9b-hexahydro-[1H]-benz[e]isoindol-1-yl)ethyl]-7-(2-methoxyphenyl)thieno[3.2-d]pyrimidine-2,4(1H,3H)-dione hydrochloride], 2.82 nM; as for `O=c1[nH]c2sccc2c(=O)n1CCN1C[C@@H]2CCc3c(O)cccc3[C@@H]2C1` (relative stereo) [Example 35, hydrobromide], 87.1 nM.
For `COc1cccc2c1CC[C@H]1CN(CCn3c(=O)[nH]c4cc5c(cc4c3=O)OCO5)C[C@@H]21` [Example 37, hydrochloride], the Kb is 0.24 nM.
Take `COc1cccc2c1CC[C@H]1CN(CCn3c(=O)[nH]c4c(C)c(OC)sc4c3=O)C[C@@H]21` [Example 64, 3-[2-((3aR,9bR)-cis-6-Methoxy-2,3,3a,4,5,9b-hexahydro-[1H]-benz[e]isoindol-1-yl)ethyl]-6-methoxy-7-methylthieno [3,2-d]primidine-2,4(1H,3H)-dione hydrochloride]: the Kb was 1.55 nM.
Consider `COc1cccc2c1CC[C@H]1CN(CCn3cnc4ccccc4c3=O)C[C@@H]21` (relative stereo) [Example 34, dihydrochloride], for which the Kb was 1.05 nM.
As for `COc1cccc2c1CC[C@H]1CN(CCn3c(=O)[nH]c4c(C)cccc4c3=O)C[C@@H]21` (relative stereo) [Example 19, hydrochloride], the figure is 5.01 nM.
For the compound `COc1cccc2c1CC[C@H]1CN(CCn3c(=O)[nH]c4cc(C(N)=O)ccc4c3=O)C[C@@H]21` [Example 46, hydrochloride], the Kb is 0.575 nM.
To `COc1cccc2c1CC[C@H]1CN(CCn3c(=O)[nH]c4cccnc4c3=O)C[C@@H]21` (relative stereo) [Example 22, hydrochloride] belongs 1.51 nM; to `COc1cccc2c1CC[C@H]1CN(CCn3c(=O)[nH]c4ncccc4c3=O)C[C@@H]21` (relative stereo) [Example 21, 3-[2-(cis-6-Methoxy-2,3 3a,4,5,9b-hexahydro-[1H]-benz[e]isoindol-1-yl)ethyl]-pyrido[2,3-d]pyrimidine-2,4(1H,3H)-dione hydrochloride], 13.2 nM.
As for `CCc1c(OC)sc2c(=O)n(CCN3C[C@@H]4CCc5c(OC)cccc5[C@@H]4C3)c(=O)[nH]c12` [Example 63, hydrochloride], the figure is 1.35 nM; as for `CCOC(=O)c1ccc2c(=O)n(CCN3C[C@@H]4CCc5c(OC)cccc5[C@@H]4C3)c(=O)[nH]c2c1` [Example 71, hydrochloride], 3.55 nM.
As for `COc1cccc2c1CC[C@H]1CN(CCn3c(=O)[nH]c4c(-c5ccccc5)c(OC)sc4c3=O)C[C@@H]21` [Example 62, hydrochloride], the figure is 2.57 nM; as for `COc1cccc2c1CC[C@H]1CN(CCn3c(=O)[nH]c4cc(Cl)ccc4c3=O)C[C@@H]21` (relative stereo) [Example 11, hydrochloride], 1.2 nM; as for `COc1cccc2c1CC[C@H]1CN(CCn3c(=O)[nH]c4cc([N+](=O)[O-])ccc4c3=O)C[C@@H]21` [Example 74, hydrochloride], 1.7 nM.
Turning to `COc1cccc2c1CC[C@H]1CN(CCn3c(=O)[nH]c4cc(-c5ccccc5)sc4c3=O)C[C@@H]21` (relative stereo) [Example 32, hydrochloride], the Kb was 33.9 nM.
To `COc1cc2c(=O)n(CCN3C[C@@H]4CCc5c(OC)cccc5[C@@H]4C3)c(=O)[nH]c2cc1Cl` [Example 49, hydrochloride] belongs 12 nM.
To `COc1cccc2c1CC[C@H]1CN(CCn3c(=O)[nH]c4nccnc4c3=O)C[C@@H]21` [Example 87, 3-[2-((3aR,9bR)cis-6-Methoxy-2,3 3a,4,5,9b-hexahydro-[1H]-benz[e]isoindol-1-yl)ethyl]-2,4pteridinedione hydrochloride] belongs 1.29 nM; to `COc1cccc2c1CC[C@H]1CN(CCn3c(=O)[nH]c4c5c(ccc4c3=O)OCO5)C[C@@H]21` [Example 54, hydrochloride], 0.891 nM; to `COc1cccc2c1CC[C@H]1CN(CCn3c(=O)[nH]c4c(C(C)C)c(OC)sc4c3=O)C[C@@H]21` [Example 65, -[2-((3aR,9bR)-cis-6-Methoxy-2,3,3a,4,5,9b-hexahydro-[1H]-benz[e]isoindol-1-yl)ethyl]-6-methoxy-7-isopropylthieno [3,2-d]pyrimidine-2,4(1H,3H)-dione hydrochloride], 2.34 nM.
